Test results taken from patent US10202361B2, “Pyridazinones as herbicides” (E I DU PONT DE NEMOURS AND COMPANY, priority 2014, dated 2019).

How the values were obtained:
Assay in all cases: Test C pre-/postemergence greenhouse herbicide test
Assay type in all cases: in vivo
[1] = tested on: velvetleaf (Abutilon theophrasti); conditions: Abutilon theophrasti, pre-emergence, Velvetleaf, Preemergence, read-out: Plant response rating
Summary of the method: (§1)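 Visual ratings, 0 = no effect, 100 = complete control, vs untreated controls at 13–15 d. Pre: seeds in loam/sand. Post: 2–18 cm plants (1–4 leaf), peat/vermiculite mix. Surfactant-containing solvent formulation; greenhouse.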

[2] = tested on: crabgrass, Large (large crabgrass, Digitaria sanguinalis); conditions: Digitaria sanguinalis, pre-emergence, Crabgrass, Large, Preemergence, read-out: Plant response rating
Summary of the method: as §1

[3] = tested on: oilseed rape (Brassica napus); conditions: Oilseed Rape, Preemergence
Summary of the method: as §1

corn (Zea mays) = conditions: Zea mays, pre-emergence, Corn, Preemergence, read-out: Plant response rating
Summary of the method: as §1

[4] = tested on: nutsedge, yellow (yellow nutsedge, Cyperus esculentus); conditions: Cyperus, pre-emergence, Nutsedge, Yellow, Preemergence, read-out: Plant response rating
Summary of the method: as §1

soybean (Glycine max) = conditions: Glycine max, pre-emergence, Soybean, Preemergence, read-out: Plant response rating
Summary of the method: as §1

[5] = tested on: lambsquarters (Chenopodium album); conditions: Preemergence
Summary of the method: as §1

[6] = tested on: pigweed (Amaranthus retroflexus); conditions: Amaranthus retroflexus, pre-emergence, Pigweed, Preemergence, read-out: Plant response rating
Summary of the method: as §1

[7] = tested on: blackgrass (Alopecurus myosuroides); conditions: Alopecurus myosuroides, pre-emergence, Blackgrass, Preemergence, read-out: Plant response rating
Summary of the method: as §1

[8] = tested on: ryegrass, Italian (Italian ryegrass, Lolium multiflorum); conditions: Lolium multiflorum, pre-emergence, Ryegrass, Italian, Preemergence, read-out: Plant response rating
Summary of the method: as §1

[9] = tested on: foxtail, giant (giant foxtail, Setaria faberii); conditions: Setaria faberi, pre-emergence, Foxtail, Giant, Preemergence, read-out: Plant response rating
Summary of the method: as §1

[10] = tested on: morningglory (Ipomoea coccinea); conditions: Morningglory, Preemergence
Summary of the method: as §1

How did the pest or weed control at 62 g/ha ([1]; 62 g ai/ha) turn out when `CCOc1cc(=O)n(-c2ccc(F)cc2)nc1Cc1ccnc(C(F)(F)F)c1` [Compound 25, 5-ethoxy-2-(4-fluorophenyl)-6-[[2-(trifluoromethyl)-4-pyridinyl]methyl]-3 (2H)-pyridazinone] was run?
Its pest or weed control at 62 g/ha is 100%.

What about the pest or weed control at 125 g/ha ([1]; 125 g ai/ha) of the same compound?
The pest or weed control at 125 g/ha was 70%.

And the pest or weed control at 250 g/ha ([1]; 250 g ai/ha)?
Its pest or weed control at 250 g/ha is 95%.

What about the pest or weed control at 31 g/ha ([2]; 31 g ai/ha) of the same compound?
Its pest or weed control at 31 g/ha is 100%.

And the pest or weed control at 62 g/ha ([2]; 62 g ai/ha)?
The pest or weed control at 62 g/ha was 100%.

And the pest or weed control at 125 g/ha ([2]; 125 g ai/ha)?
Its pest or weed control at 125 g/ha is 100%.

What about the pest or weed control at 250 g/ha ([2]; 250 g ai/ha) of the same compound?
Its pest or weed control at 250 g/ha is 100%.

And the Plant response rating ([3]; 31 g ai/ha)?
Its Plant response rating is 50.

And the Plant response rating ([3]; 62 g ai/ha)?
Its Plant response rating is 95.

And the Plant response rating ([3]; 125 g ai/ha)?
Its Plant response rating is 95.

What about the Plant response rating ([3]; 250 g ai/ha) of the same compound?
The Plant response rating was 95.

What about the plant injury at 31 g/ha (corn (Zea mays); 31 g ai/ha) of the same compound?
Its plant injury at 31 g/ha is 10%.

What about the plant injury at 62 g/ha (corn (Zea mays); 62 g ai/ha) of the same compound?
Its plant injury at 62 g/ha is 30%.

What about the plant injury at 125 g/ha (corn (Zea mays); 125 g ai/ha) of the same compound?
The plant injury at 125 g/ha was 35%.

What about the plant injury at 250 g/ha (corn (Zea mays); 250 g ai/ha) of the same compound?
The plant injury at 250 g/ha was 45%.

What about the pest or weed control at 31 g/ha ([4]; 31 g ai/ha) of the same compound?
Its pest or weed control at 31 g/ha is 10%.

And the pest or weed control at 62 g/ha ([4]; 62 g ai/ha)?
The pest or weed control at 62 g/ha was 5%.

And the pest or weed control at 125 g/ha ([4]; 125 g ai/ha)?
The pest or weed control at 125 g/ha was 15%.

What about the pest or weed control at 250 g/ha ([4]; 250 g ai/ha) of the same compound?
Its pest or weed control at 250 g/ha is 45%.

And the plant injury at 62 g/ha (soybean (Glycine max); 62 g ai/ha)?
The plant injury at 62 g/ha was 20%.

And the plant injury at 125 g/ha (soybean (Glycine max); 125 g ai/ha)?
The plant injury at 125 g/ha was 35%.

What about the plant injury at 250 g/ha (soybean (Glycine max); 250 g ai/ha) of the same compound?
The plant injury at 250 g/ha was 65%.

What about the Plant response rating ([5]; 31 g ai/ha) of the same compound?
The Plant response rating was 100.

And the Plant response rating ([5]; 62 g ai/ha)?
Its Plant response rating is 100.

And the Plant response rating ([5]; 125 g ai/ha)?
The Plant response rating was 100.

What about the Plant response rating ([5]; 250 g ai/ha) of the same compound?
Its Plant response rating is 100.

And the pest or weed control at 31 g/ha ([6]; 31 g ai/ha)?
Its pest or weed control at 31 g/ha is 100%.

And the pest or weed control at 62 g/ha ([6]; 62 g ai/ha)?
Its pest or weed control at 62 g/ha is 100%.

And the pest or weed control at 125 g/ha ([6]; 125 g ai/ha)?
Its pest or weed control at 125 g/ha is 98%.

What about the pest or weed control at 250 g/ha ([6]; 250 g ai/ha) of the same compound?
Its pest or weed control at 250 g/ha is 100%.

And the pest or weed control at 31 g/ha ([7]; 31 g ai/ha)?
The pest or weed control at 31 g/ha was 40%.

And the pest or weed control at 62 g/ha ([7]; 62 g ai/ha)?
The pest or weed control at 62 g/ha was 85%.

What about the pest or weed control at 125 g/ha ([7]; 125 g ai/ha) of the same compound?
Its pest or weed control at 125 g/ha is 90%.

And the pest or weed control at 250 g/ha ([7]; 250 g ai/ha)?
Its pest or weed control at 250 g/ha is 90%.

What about the pest or weed control at 31 g/ha ([8]; 31 g ai/ha) of the same compound?
The pest or weed control at 31 g/ha was 20%.

What about the pest or weed control at 62 g/ha ([8]; 62 g ai/ha) of the same compound?
The pest or weed control at 62 g/ha was 40%.

What about the pest or weed control at 125 g/ha ([8]; 125 g ai/ha) of the same compound?
The pest or weed control at 125 g/ha was 90%.

What about the pest or weed control at 250 g/ha ([8]; 250 g ai/ha) of the same compound?
The pest or weed control at 250 g/ha was 90%.

What about the pest or weed control at 31 g/ha ([9]; 31 g ai/ha) of the same compound?
The pest or weed control at 31 g/ha was 100%.

And the pest or weed control at 62 g/ha ([9]; 62 g ai/ha)?
The pest or weed control at 62 g/ha was 100%.

And the pest or weed control at 125 g/ha ([9]; 125 g ai/ha)?
The pest or weed control at 125 g/ha was 100%.

And the pest or weed control at 250 g/ha ([9]; 250 g ai/ha)?
The pest or weed control at 250 g/ha was 100%.

And the Plant response rating ([10]; 31 g ai/ha)?
The Plant response rating was 95.

And the Plant response rating ([10]; 62 g ai/ha)?
Its Plant response rating is 95.

What about the Plant response rating ([10]; 125 g ai/ha) of the same compound?
Its Plant response rating is 100.

What about the Plant response rating ([10]; 250 g ai/ha) of the same compound?
The Plant response rating was 98.
